{"source": "patent US10670605B2", "about": "“Cysteine reactive probes and uses thereof” (The Scripps Research Institute, priority 2015, dated 2020)", "key": {"[1]": {"biological_target": "T1, Cys residues in primary human T cells (Homo sapiens, UniProt Q15306)", "T1 sequence (Q15306 1-451)": "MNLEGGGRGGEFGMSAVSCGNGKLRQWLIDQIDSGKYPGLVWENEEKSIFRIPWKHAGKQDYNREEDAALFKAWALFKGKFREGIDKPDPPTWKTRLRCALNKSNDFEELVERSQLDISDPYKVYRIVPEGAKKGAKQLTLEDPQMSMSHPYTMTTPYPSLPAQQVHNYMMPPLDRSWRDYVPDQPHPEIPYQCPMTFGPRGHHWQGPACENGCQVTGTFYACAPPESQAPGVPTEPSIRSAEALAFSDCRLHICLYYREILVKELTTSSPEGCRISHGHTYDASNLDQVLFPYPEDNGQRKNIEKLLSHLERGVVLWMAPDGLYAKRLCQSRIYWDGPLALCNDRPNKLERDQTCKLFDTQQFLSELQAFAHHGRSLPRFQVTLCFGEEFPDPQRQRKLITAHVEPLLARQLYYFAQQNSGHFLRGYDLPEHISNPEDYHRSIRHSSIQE", "experiment": "isoTOP-ABPP of compound-treated primary human T cells", "format": "cell-based", "conditions": "IRF4 C194 (Q15306)"}, "[2]": {"biological_target": "Cys residues in primary human T cells (Homo sapiens, UniProt Q7Z2W4)", "sequence (Q7Z2W4 whole entry)": "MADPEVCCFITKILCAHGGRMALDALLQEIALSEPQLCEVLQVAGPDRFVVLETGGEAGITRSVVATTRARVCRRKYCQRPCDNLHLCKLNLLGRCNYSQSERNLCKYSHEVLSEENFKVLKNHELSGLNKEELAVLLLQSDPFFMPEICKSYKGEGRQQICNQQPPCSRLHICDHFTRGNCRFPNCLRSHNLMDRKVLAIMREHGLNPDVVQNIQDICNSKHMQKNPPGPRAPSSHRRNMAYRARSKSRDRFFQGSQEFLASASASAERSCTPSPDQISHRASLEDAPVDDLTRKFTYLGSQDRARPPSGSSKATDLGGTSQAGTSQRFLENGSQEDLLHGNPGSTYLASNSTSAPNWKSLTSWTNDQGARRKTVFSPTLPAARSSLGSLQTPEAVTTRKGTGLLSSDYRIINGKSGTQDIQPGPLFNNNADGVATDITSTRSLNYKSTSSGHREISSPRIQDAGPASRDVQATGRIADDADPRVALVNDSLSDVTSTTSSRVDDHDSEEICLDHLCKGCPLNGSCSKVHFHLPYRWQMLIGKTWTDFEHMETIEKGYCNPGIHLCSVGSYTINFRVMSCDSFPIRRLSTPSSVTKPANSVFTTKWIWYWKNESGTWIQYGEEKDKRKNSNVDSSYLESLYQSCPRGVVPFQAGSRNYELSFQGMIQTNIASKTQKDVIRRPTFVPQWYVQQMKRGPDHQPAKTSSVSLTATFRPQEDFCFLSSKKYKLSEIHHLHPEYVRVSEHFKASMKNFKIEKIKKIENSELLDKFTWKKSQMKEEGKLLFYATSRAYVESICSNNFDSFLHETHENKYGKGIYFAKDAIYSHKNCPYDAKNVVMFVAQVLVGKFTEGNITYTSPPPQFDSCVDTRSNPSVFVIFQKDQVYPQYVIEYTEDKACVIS", "experiment": "isoTOP-ABPP of compound-treated primary human T cells", "format": "cell-based", "conditions": "ZC3HAV1 C645 (Q7Z2W4)"}, "[3]": {"biological_target": "Cys residues in primary human T cells (Homo sapiens, UniProt Q93009)", "sequence (Q93009 whole entry)": "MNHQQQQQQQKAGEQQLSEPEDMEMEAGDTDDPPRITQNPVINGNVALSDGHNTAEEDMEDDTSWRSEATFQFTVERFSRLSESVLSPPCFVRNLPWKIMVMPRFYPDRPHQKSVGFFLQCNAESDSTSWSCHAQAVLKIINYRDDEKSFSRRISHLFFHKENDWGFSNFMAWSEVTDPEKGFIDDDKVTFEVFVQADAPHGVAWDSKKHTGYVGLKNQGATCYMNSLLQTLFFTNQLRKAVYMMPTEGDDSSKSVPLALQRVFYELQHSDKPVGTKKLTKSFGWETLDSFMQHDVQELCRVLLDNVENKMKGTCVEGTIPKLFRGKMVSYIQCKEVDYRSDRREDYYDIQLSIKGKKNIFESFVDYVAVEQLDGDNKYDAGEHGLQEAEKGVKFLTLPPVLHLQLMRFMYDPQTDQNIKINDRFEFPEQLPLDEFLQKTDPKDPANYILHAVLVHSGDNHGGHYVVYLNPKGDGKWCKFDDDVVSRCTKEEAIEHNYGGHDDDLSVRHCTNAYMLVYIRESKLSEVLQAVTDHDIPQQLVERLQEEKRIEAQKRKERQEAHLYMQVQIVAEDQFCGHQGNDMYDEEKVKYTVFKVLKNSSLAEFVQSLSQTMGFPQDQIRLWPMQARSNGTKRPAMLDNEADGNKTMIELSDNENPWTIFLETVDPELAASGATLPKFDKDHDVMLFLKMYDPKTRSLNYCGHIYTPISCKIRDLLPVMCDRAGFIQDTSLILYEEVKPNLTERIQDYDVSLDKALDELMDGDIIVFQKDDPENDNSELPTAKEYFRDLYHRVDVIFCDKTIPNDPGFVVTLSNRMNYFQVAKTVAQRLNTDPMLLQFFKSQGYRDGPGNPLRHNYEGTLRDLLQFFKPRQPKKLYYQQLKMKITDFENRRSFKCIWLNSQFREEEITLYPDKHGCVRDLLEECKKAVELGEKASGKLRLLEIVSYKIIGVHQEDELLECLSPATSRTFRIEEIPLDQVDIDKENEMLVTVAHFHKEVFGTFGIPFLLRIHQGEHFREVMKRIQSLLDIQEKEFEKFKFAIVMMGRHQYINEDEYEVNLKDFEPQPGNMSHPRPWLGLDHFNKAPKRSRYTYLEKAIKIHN", "experiment": "isoTOP-ABPP of compound-treated primary human T cells", "format": "cell-based", "conditions": "USP7 C315 (Q93009)"}, "[4]": {"biological_target": "T2, Cys residues in primary human T cells (Homo sapiens, UniProt Q9NRG0)", "T2 sequence (Q9NRG0 1-131)": "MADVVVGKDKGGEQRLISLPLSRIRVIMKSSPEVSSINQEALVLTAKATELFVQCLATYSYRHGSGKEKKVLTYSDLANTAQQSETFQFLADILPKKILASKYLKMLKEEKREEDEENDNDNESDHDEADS", "experiment": "isoTOP-ABPP of compound-treated primary human T cells", "format": "cell-based", "conditions": "CHRAC1 C55 (Q9NRG0)"}, "[5]": {"biological_target": "T3, Cys residues in primary human T cells (Homo sapiens, UniProt Q9NRW3)", "T3 sequence (Q9NRW3 1-190)": "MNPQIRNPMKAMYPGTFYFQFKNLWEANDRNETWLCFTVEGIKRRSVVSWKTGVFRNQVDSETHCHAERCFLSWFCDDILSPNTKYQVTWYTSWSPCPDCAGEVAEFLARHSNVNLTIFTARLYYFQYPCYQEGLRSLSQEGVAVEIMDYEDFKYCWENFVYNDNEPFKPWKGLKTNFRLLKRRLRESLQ", "experiment": "isoTOP-ABPP of compound-treated primary human T cells", "format": "cell-based", "conditions": "APOBEC3C C130 (Q9NRW3)"}, "TIGAR": {"biological_target": "T4, TIGAR (Homo sapiens, UniProt Q9NQ88)", "T4 construct": "His6 (N); made in house; host or cells: E. coli BL21(DE3)", "T4 sequence (Q9NQ88 whole entry)": "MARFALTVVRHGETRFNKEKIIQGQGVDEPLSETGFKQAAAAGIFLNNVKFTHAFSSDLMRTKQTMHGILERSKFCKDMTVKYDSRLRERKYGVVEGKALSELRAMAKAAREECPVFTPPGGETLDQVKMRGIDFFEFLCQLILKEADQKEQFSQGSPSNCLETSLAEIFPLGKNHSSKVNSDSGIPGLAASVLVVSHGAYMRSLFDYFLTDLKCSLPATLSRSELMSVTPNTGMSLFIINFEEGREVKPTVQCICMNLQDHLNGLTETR", "experiment": "TIGAR activity assay", "format": "biochemical", "conditions": "WT-TIGAR, concentration series", "procedure": "TIGAR activity assay was conducted as described in Gerin et al. The Biochemical Journal 458:439-448 (2014). Formation of 3PG (3-phosphoglycerate) production from 23BPG (2,3-bisphosphoglycerate) was measured spectrophotometrically on a TECAN plate reader, measuring decrease in absorbance at 340 nm in clear, flat-bottom 96 well microplate (Corning® Costar®). 2 μL of recombinant TIGAR (10 mg/mL) was diluted into 1 mL dilution buffer (25 mM HEPES, pH 7.1, 25 mM KCl, 1 mM MgCl2). 25 μL of diluted protein was incubated for 1 h with the indicated concentration of compound (1 μL, 25× stock in DMSO). Then 75 μL of assay mixture comprised of 25 mM HEPES (pH 7.1), 25 mM KCl, 1 mM MgCl2, 0.5 mM NADH, 1 mM DTT, 1 mM 23BPG, 1 mM ATP-Mg, the equivalent of 1 μL each of rabbit muscle GAPDH (4000 units/mL, Sigma, G5537) and yeast PG kinase (6300 units/mL, Sigma, P7634) was added to the protein and decrease in absorbance was monitored at 340 nm. The background, calculated from samples lacking TIGAR, was subtracted from samples containing TIGAR. Experiments were performed in quadruplicate."}}, "note": "Counter-ions that a name gives are not always drawn.", "data": [{"smiles": "COC(=O)/C=C/C(=O)OC", "note": "[DMF, dimethyl fumarate]", "values": [{"measurement": "R value (DMSO/DMF)", "setting": "[1]; DMF 10 μM 4h", "value": 1.69}, {"measurement": "R value (DMSO/DMF)", "setting": "[1]; DMF 25 μM 4h", "value": 1.78}, {"measurement": "R value (DMSO/DMF)", "setting": "[1]; DMF 50 μM 1h", "value": 1.32}, {"measurement": "R value (DMSO/DMF)", "setting": "[1]; DMF 50 μM 2h", "value": 3.13}, {"measurement": "R value (DMSO/DMF)", "setting": "[1]; DMF 50 μM 4h", "value": 5.25}, {"measurement": "R value (DMSO/DMF)", "setting": "[2]; DMF 10 μM 4h", "value": 1.46}, {"measurement": "R value (DMSO/DMF)", "setting": "[2]; DMF 25 μM 4h", "value": 2.52}, {"measurement": "R value (DMSO/DMF)", "setting": "[2]; DMF 50 μM 1h", "value": 2.36}, {"measurement": "R value (DMSO/DMF)", "setting": "[2]; DMF 50 μM 2h", "value": 3.13}, {"measurement": "R value (DMSO/DMF)", "setting": "[2]; DMF 50 μM 4h", "value": 6.28}, {"measurement": "R value (DMSO/DMF)", "setting": "[3]; DMF 10 μM 4h", "value": 1.9}, {"measurement": "R value (DMSO/DMF)", "setting": "[3]; DMF 50 μM 1h", "value": 5.33}, {"measurement": "R value (DMSO/DMF)", "setting": "[3]; DMF 50 μM 2h", "value": 14.06}, {"measurement": "R value (DMSO/DMF)", "setting": "[4]; DMF 10 μM 4h", "value": 5.07}, {"measurement": "R value (DMSO/DMF)", "setting": "[4]; DMF 50 μM 1h", "value": 12.59}, {"measurement": "R value (DMSO/DMF)", "setting": "[4]; DMF 50 μM 2h", "value": 11.72}, {"measurement": "R value (DMSO/DMF)", "setting": "[5]; DMF 10 μM 4h", "value": 1.92}, {"measurement": "R value (DMSO/DMF)", "setting": "[5]; DMF 50 μM 1h", "value": 8.6}, {"measurement": "R value (DMSO/DMF)", "setting": "[5]; DMF 50 μM 2h", "value": 20}, {"measurement": "R value (DMSO/DMF)", "setting": "[5]; DMF 50 μM 4h", "value": 20}]}, {"smiles": "C=CC(=O)N(c1ccccc1)c1ccc(Br)cc1", "note": "[compound 5]", "values": [{"measurement": "plateau of inhibition of TIGAR substrate turnover", "setting": "TIGAR", "value": 70, "unit": "%"}]}]}
